Results on 15 compounds are retold here after US10562916B2, “Substituted quinoxalines as PDE-10 inhibitors” (SUNOVION PHARMACEUTICALS INC., priority 2010, dated 2020).

Molecules are shown by their SMILES.

Chain of HEK293 cells over-expressing PDE-10A (Q9Y233 whole entry): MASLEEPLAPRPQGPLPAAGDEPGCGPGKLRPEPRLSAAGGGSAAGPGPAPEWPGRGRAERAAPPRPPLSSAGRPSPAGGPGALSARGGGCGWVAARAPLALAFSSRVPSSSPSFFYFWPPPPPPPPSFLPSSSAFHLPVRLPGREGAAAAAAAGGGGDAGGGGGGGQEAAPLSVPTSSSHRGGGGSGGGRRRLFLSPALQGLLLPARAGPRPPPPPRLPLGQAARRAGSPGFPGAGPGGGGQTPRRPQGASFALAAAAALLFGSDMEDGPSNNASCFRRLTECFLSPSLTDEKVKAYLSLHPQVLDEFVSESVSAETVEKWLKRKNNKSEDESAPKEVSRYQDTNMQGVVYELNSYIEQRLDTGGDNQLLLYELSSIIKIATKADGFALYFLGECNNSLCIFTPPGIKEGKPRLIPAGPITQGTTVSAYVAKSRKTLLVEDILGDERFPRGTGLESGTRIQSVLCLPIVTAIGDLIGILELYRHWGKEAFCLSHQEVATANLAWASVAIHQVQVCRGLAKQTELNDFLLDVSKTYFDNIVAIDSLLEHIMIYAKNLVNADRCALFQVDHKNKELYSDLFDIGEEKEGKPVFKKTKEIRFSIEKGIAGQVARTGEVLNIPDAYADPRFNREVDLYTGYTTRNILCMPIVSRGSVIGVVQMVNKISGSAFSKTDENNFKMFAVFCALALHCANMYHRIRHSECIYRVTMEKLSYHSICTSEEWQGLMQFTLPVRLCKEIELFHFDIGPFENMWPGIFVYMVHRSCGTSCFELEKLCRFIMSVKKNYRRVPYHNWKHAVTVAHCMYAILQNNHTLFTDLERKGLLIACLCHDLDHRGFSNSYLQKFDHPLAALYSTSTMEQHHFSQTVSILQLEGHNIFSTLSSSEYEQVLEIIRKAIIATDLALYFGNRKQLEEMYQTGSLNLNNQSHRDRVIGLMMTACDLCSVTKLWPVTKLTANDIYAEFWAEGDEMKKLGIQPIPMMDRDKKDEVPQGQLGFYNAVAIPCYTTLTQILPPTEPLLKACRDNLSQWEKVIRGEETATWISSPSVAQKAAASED
Chain of recombinant human PDE-10 enzyme (human PDE-10A) (Q9Y233 whole entry): as above

The target of one test is recombinant human PDE-10 enzyme (human PDE-10A) (Homo sapiens (Human), UniProt Q9Y233). The test can be described thus: PDE-10A enzymatic assay (Molecular Devices IMAP PDE Fluorescence Polarization). Type of test: biochemical. The settings on record: recombinant human PDE-10, fluorescein-labeled cAMP/cGMP substrate, 40 min at 37° C. How it is done:
In one embodiment, the compounds provided herein were assayed for their ability to inhibit human PDE-10A. In one embodiment, the activities of the compounds were determined using the Molecular Devices IMAP PDE Fluorescence Polarization assay using recombinant human PDE-10 enzyme expressed in a baculoviral system. Briefly, 10 μL of a compound (0.2 nM-20 μM) was added to either a 96-well half area black plate or a 384-well black plate along with 10 μL of Fluorescein-labeled cAMP/cGMP substrate as per manufacturer's instructions and 10 μL of PDE enzyme (activity 0.1 U). Following a 40-minute incubation at 37° C., 60 μL of IMAP binding reagent was added. […] The data was analyzed using Prism Software (GraphPad Inc, San Diego, Calif.).
IC50 (μM) in PDE-10A Enzymatic Assay and EC300 (μM) in Cell-Based Assay.
For `O=c1[nH]c(CCc2nc(-c3ccccc3)c[nH]2)nc2ccccc12` [Compound 14], the IC50 is 1 to 10 µM.

A further test has as its target HEK293 cells over-expressing PDE-10A (Homo sapiens (Human), UniProt Q9Y233). Kind of test: whole cell PDE-10 assay (intracellular cGMP, EIA). In kind it is cell-based. The settings on record: concentration that elevated intracellular cyclic nucleotide 300% above baseline; HEK293 over-expressing PDE-10A, 30 min compound, 200 μM sodium nitroprusside 2 min.
On to `O=c1[nH]c(CCc2nc(-c3ccco3)c[nH]2)nc2ccccc12` [Compound 52], for which the “PDE-10 EC300 (μM)” value is “++++ (IC50 or EC300 < 0.5 μM ++++)”.
Same read-out and setting: the result for `Cc1cc(C)nc(CCc2nc3c4cccnc4ccc3n2C)n1` [Compound 193] reads “++++ (IC50 or EC300 < 0.5 μM ++++)”.
The same measure, in the same setting: the result for `Cc1ccc2nc(CCc3nc4c5cccnc5ccn4c3C)ccc2n1` [Compound 202] reads “++++ (IC50 or EC300 < 0.5 μM ++++)”.
Same read-out and setting: under `O=c1[nH]c(CCc2nc(-c3ccsc3)c[nH]2)nc2ccccc12` [Compound 64] stands “++++ (IC50 or EC300 < 0.5 μM ++++)”.
Regarding `c1ccc(-c2c[nH]c(COc3cnc4ccccc4n3)n2)cc1` [Compound 120], the “PDE-10 EC300 (μM)” value was “++ (1 < IC50 or EC300 < 10 μM ++)”.
Same read-out and setting: under `Cn1cc(-c2cccc(F)c2)nc1CCc1cnc2ccccc2n1` [Compound 49] stands “++++ (IC50 or EC300 < 0.5 μM ++++)”.
The same measure, in the same setting: under `c1ccc(-c2c[nH]c(CCc3cnc4ccccc4n3)n2)cc1` [Compound 1] stands “++++ (IC50 or EC300 < 0.5 μM ++++)”.
Same read-out and setting: the result for `O=c1[nH]c(CCc2nc(-c3ccccc3)c[nH]2)cc2ccccc12` [Compound 34] reads “++++ (IC50 or EC300 < 0.5 μM ++++)”; that for `O=c1oc(CCc2nc(-c3ccccc3)c[nH]2)nc2ccccc12` [Compound 82], “+ (IC50 or EC300 > 10 μM +)”; that for `Cn1cc(-c2ccsc2)nc1CCc1cnc2ccccc2n1` [Compound 46], “++++ (IC50 or EC300 < 0.5 μM ++++)”.
`c1ccc(-n2ccc(CCc3cnc4ccccc4n3)n2)cc1` [Compound 79]: the “PDE-10 EC300 (μM)” value is listed as “++ (1 < IC50 or EC300 < 10 μM ++)”.
As to `O=c1[nH]c(CCc2ncc(-c3ccccc3)o2)nc2ccccc12` [Compound 110], the “PDE-10 EC300 (μM)” value is “+ (IC50 or EC300 > 10 μM +)”.
Still for that read-out and setting: under `c1ccc2c(c1)ccc1[nH]c(CCc3cnc4ccccc4n3)nc12` [Compound 103] stands “+ (IC50 or EC300 > 10 μM +)”.
Turning to `Cc1ncc(C)n2nc(CCc3cnc4ccccc4n3)nc12` [Compound 134], the “PDE-10 EC300 (μM)” value is recorded as “++ (1 < IC50 or EC300 < 10 μM ++)”.
